From patent US5187188A, “Oxazole carboxylic acid derivatives” (Bristol-Myers Squibb Company, priority 1992, dated 1993)
Converted amounts (≈) assume the structure as drawn. Where a name gives a salt, the structure may show the parent alone.

These molecules were tested on human platelets (assay: In vitro inhibition of ADP-induced human platelet aggregation in platelet-rich plasma (aggregometer method of Born)). Settings: human PRP, 0.5 mcg/mL ADP, about three minutes preincubation.
Assay type: cell-based
Method: The aggregometer method of Born, G. V. R., J. Physiol., (London), 162, 67-68, (1962) as modified by Mustard, J. F., et al., J. Lab. Clin. Med., 64, 548-599, (1964) Was used to assess the in vitro activity of the various compounds as to the inhibition of adenosine diphosphate (ADP) and collagen-induced platelet aggregation. The human volunteer donor's arm is cleansed with 70% ethyl alcohol. A sterile 20 ml syringe and needle are used to withdraw 20 ml of blood. The blood is immediately added to a test tube containing 3.8% sodium citrate to prevent clotting (1 part citrate to 9 parts blood).
Platelet rich plasma (PRP) was separated by centrifugation for 10 minutes at 1000 rpm (140×g) from citrated (3.8%) human blood. All glassware used for preparation of PRP is silicon treated. ADP in final concentration of 0.5 mcg/mL or 0.05 mL of a collagen suspension prepared according to the method described by Evans, G., et al., J. Exp. Med., 128, 877-894, (1968) was used to induce aggregation. The various compounds tested were dissolved in dimethylsulfoxide (DMSO) so that 5 mcl added to the platelet rich plasma would yield the desired test concentration. Vehicle control trials were done and compared with aggregation induced in platelet rich plasma containing various concentrations of the test compounds. Dose response curves were obtained and Inhibitor Concentration (IC50) values calculated.
The compounds listed in Table 1 were evaluated as inhibitors of human platelet aggregation in vitro in platelet-rich-plasma (PRP) using […] ADP as the inducing agent. The PRP was incubated with drug for about three minutes prior to the addition of the agonist. The extent of aggregation in the presence of various concentrations of test compounds was compared with that in vehicle controls. Dose-response curves were obtained and IC50 values determined.

SMILES | IC50 [mg/L]
CCOC(=O)C(=Cc1cccc(OCC(=O)OC(C)(C)C)c1)c1nc(-c2ccccc2)c(-c2ccccc2)o1 [Compound 7a, (E) and (Z)-Ethyl α-[[3-[[(1,1-dimethylethoxy)carbonyl]methoxyl]phenyl]methylene]-4,5-diphenyl-2-oxazoleacetate] | > 32
CCOC(=O)/C(=C\c1cccc(OCC(=O)OC)c1)c1nc(-c2ccccc2)c(-c2ccccc2)o1 [Compound 7b, (Z)-Ethyl-α-[[3-(2-methoxy-2-oxoethoxy)phenyl]methylene]-4,5-diphenyl-2-oxazole acetate] | 10
CCOC(=O)/C(=C/c1cccc(OCC(=O)OC)c1)c1nc(-c2ccccc2)c(-c2ccccc2)o1 [Compound 7c, (E)-Ethyl α-[[3-(2-methoxy-2-oxoethoxy)phenyl]methylene]-4,5-diphenyl-2-oxazole acetate] | 1
COC(=O)COc1cccc(C=C(C(=O)OC)c2nc(-c3ccccc3)c(-c3ccccc3)o2)c1 [Compound 7d, Methyl (E) and (Z) α-[[3-(2-methoxy-2-oxoethoxy)phenyl]methylene]-4,5-diphenyl-2-oxazoleacetate] | 0.5 (≈ 1.06 µM)
CC(C)OC(=O)C(=Cc1cccc(OCC(=O)OC(C)(C)C)c1)c1nc(-c2ccccc2)c(-c2ccccc2)o1 [Compound 7e, (E) and (Z)-1-methylethyl α-[[3-[2-(1,1,-dimethylethoxy)-2-oxoethoxy]phenyl]-methylene]-4,5-diphenyl-2-oxazoleacetate] | > 32
COC(=O)COc1cccc(C=C(C(=O)OC(C)C)c2nc(-c3ccccc3)c(-c3ccccc3)o2)c1 [Compound 7f, (E) and (Z) 1-Methylethyl α-[[3-[2-(methoxy-2-oxoethoxy)phenyl]methylene]-4,5-diphenyl-2-oxazoleacetate] | 5 (≈ 10 µM)
COC(=O)COc1cccc(C=C(C(N)=O)c2nc(-c3ccccc3)c(-c3ccccc3)o2)c1 [Compound 7g, (E) and (Z) Methyl [3-[3-amino-2-(4,5-diphenyl)-2-oxazolyl]-3-oxo-1-propenyl]phenoxy]acetate] | 2.5 (≈ 5.5 µM)
CNC(=O)C(=Cc1cccc(OCC(=O)OC)c1)c1nc(-c2ccccc2)c(-c2ccccc2)o1 [Compound 7h, (E) and (Z) Methyl [3-[2-(4,5-diphenyl-2-oxazolyl)-3-methylamino-3-oxo-propenyl]phenoxy]acetate] | 1.3 (≈ 2.77 µM)
COC(=O)COc1cccc(/C=C(\C(=O)N(C)C)c2nc(-c3ccccc3)c(-c3ccccc3)o2)c1 [Compound 7i, (Z)-Methyl [3-[3-(dimethylamino)-2-(4,5-diphenyl-2-oxazolyl)-3-oxo-1-propenyl]phenoxy]acetate] | > 32
CCOC(=O)C(=Cc1cccc(OCC(=O)O)c1)c1nc(-c2ccccc2)c(-c2ccccc2)o1 [Compound 8a, (E) and (Z) Ethyl α-[[3-carboxymethoxy)phenyl]methylene]-4,5-diphenyl-2-oxazole acetate] | 0.17
O=C(O)COc1cccc(C=C(C(=O)O)c2nc(-c3ccccc3)c(-c3ccccc3)o2)c1 [Compound 8b] | 9 (≈ 20.4 µM)
CNC(=O)C(=Cc1cccc(OCC(=O)O)c1)c1nc(-c2ccccc2)c(-c2ccccc2)o1 [Compound 8d, (E) and (Z) [3-[2-(4,5-Diphenyl-2-oxazolyl)-3-(methylamino)-3-oxo-propenyl]phenoxy]acetic acid] | 7 (≈ 15.4 µM)
CN(C)C(=O)/C(=C\c1cccc(OCC(=O)O)c1)c1nc(-c2ccccc2)c(-c2ccccc2)o1 [Compound 8e, (Z)-[3-[3-(Dimethylamino)-2-(4,5-diphenyl-2-oxazolyl)-3-oxo-1-propenyl]phenoxy]acetic acid] | 5.8 (≈ 12.4 µM)
CCOC(=O)C(Cc1cccc(OCC(=O)OC(C)(C)C)c1)c1nc(-c2ccccc2)c(-c2ccccc2)o1 (stereo not shown) [Compound 9a] | > 32
CCOC(=O)C(Cc1cccc(OCC(=O)OC)c1)c1nc(-c2ccccc2)c(-c2ccccc2)o1 (stereo not drawn) [Compound 9b, Ethyl α-[(3-[(methoxycarbonyl)methoxyl]phenyl]-methyl]-4,5-diphenyl-2-oxazole acetate] | 0.75
COC(=O)C(Cc1cccc(OCC(=O)OC(C)(C)C)c1)c1nc(-c2ccccc2)c(-c2ccccc2)o1 (stereo not drawn) [Compound 9c, Methyl α-[[3-(2-(1,1-dimethylethoxy-2-oxoethoxy)phenyl]methyl]-4,5-diphenyl-2-oxazole acetate] | > 32
COC(=O)COc1cccc(CC(C(=O)OC)c2nc(-c3ccccc3)c(-c3ccccc3)o2)c1 (stereo not drawn) [Compound 9d, Methyl α-[[3-(2-methoxy-2-oxoethoxy)phenyl]methyl]-4,5-diphenyl-2-oxazole acetate] | 0.6

SMILES | IC50 [mg/L]
CC(C)OC(=O)C(Cc1cccc(OCC(=O)OC(C)(C)C)c1)c1nc(-c2ccccc2)c(-c2ccccc2)o1 (stereo not drawn) [Compound 9e, 1-Methylethyl α-[[3-[2-(1,1-dimethylethoxy)-2-oxoethoxy)phenyl]methyl]-4,5-diphenyl-2-oxazoleacetate] | > 32
COC(=O)COc1cccc(CC(C(=O)OC(C)C)c2nc(-c3ccccc3)c(-c3ccccc3)o2)c1 (stereo not shown) [Compound 9f] | 3.5 (≈ 7.01 µM)
CC(C)(C)OC(=O)COc1cccc(CC(C(N)=O)c2nc(-c3ccccc3)c(-c3ccccc3)o2)c1 (stereo not shown) [Compound 9g, (t-Butyl [3-3-amino-2-(4,5-diphenyl-2-oxazolyl)-3-oxopropyl]phenoxy acetate] | > 32
COC(=O)COc1cccc(CC(C(N)=O)c2nc(-c3ccccc3)c(-c3ccccc3)o2)c1 (stereo not drawn) [Compound 9h, Methyl[3-[α-Amino-2-(4,5-diphenyl-2-oxazolyl)-3-oxopropyl]phenoxy]acetic acid] | > 32
CNC(=O)C(Cc1cccc(OCC(=O)OC)c1)c1nc(-c2ccccc2)c(-c2ccccc2)o1 (stereo not shown) [Compound 9i, Methyl[3-[2-(4,5-diphenyl-2-oxazolyl)-3-(methylamino)-3-oxo-propyl]phenoxy]acetate] | 3.5 (≈ 7.44 µM)
COC(=O)COc1cccc(CC(C(=O)N(C)C)c2nc(-c3ccccc3)c(-c3ccccc3)o2)c1 (stereo not shown) [Compound 9j] | 16 (≈ 33 µM)
CCOC(=O)C(Cc1cccc(OCC(=O)O)c1)c1nc(-c2ccccc2)c(-c2ccccc2)o1 (stereo not drawn) [Compound 10a, Ethyl α-[[3-hydroxy-2-oxoethoxyl]phenyl]methyl]-4,5-diphenyl-2-oxazole ace tate] | 0.06 (≈ 0.127 µM)
O=C(O)COc1cccc(CC(C(=O)O)c2nc(-c3ccccc3)c(-c3ccccc3)o2)c1 (stereo not drawn) [Compound 10b, α-[[3-(2-Hydroxy-2-oxoethoxy)phenyl]methyl]-4,5-diphenyl-2-oxazoleacetic acid, disodium salt] | 7
COC(=O)C(Cc1cccc(OCC(=O)O)c1)c1nc(-c2ccccc2)c(-c2ccccc2)o1 (stereo not drawn) [Compound 10c, Methyl α-[[3-(2-hydroxy-2-oxoethoxy)phenyl]methyl]-4,5-diphenyl-2-oxazole acetate] | 0.037
CC(C)OC(=O)C(Cc1cccc(OCC(=O)O)c1)c1nc(-c2ccccc2)c(-c2ccccc2)o1 (stereo not shown) [Compound 10d] | 0.6 (≈ 1.24 µM)
NC(=O)C(Cc1cccc(OCC(=O)O)c1)c1nc(-c2ccccc2)c(-c2ccccc2)o1 (stereo not shown) [Compound 10e, [3-[3-Amino-2-(4,5-diphenyl-2-oxazolyl)-3-oxopropyl]phenoxy]acetic acid] | 1.7 (≈ 3.84 µM)
CNC(=O)C(Cc1cccc(OCC(=O)O)c1)c1nc(-c2ccccc2)c(-c2ccccc2)o1 (stereo not shown) [Compound 10f, [3-[2-(4,5-Diphenyl-2-oxazolyl)-3-(methylamino)-3-oxopropyl]phenoxy]acetic acid] | 0.32 (≈ 0.701 µM)
CN(C)C(=O)C(Cc1cccc(OCC(=O)O)c1)c1nc(-c2ccccc2)c(-c2ccccc2)o1 (stereo not shown) [Compound 10g, [3-[3-(Dimethylamino)-2-(4,5-diphenyl-2-oxazolyl)-3-oxopropyl]phenoxy]acetic acid] | 1.7 (≈ 3.61 µM)
COC(=O)COc1cccc(/C=C(\C#N)c2nc(-c3ccccc3)c(-c3ccccc3)o2)c1 [Compound 16, (E)-Methyl[3-[2-cyano-2-(4,5-diphenyl-2-oxazolyl)ethenyl]phenoxy]acetate] | 8 (≈ 18.3 µM)
N#C/C(=C\c1cccc(OCC(=O)O)c1)c1nc(-c2ccccc2)c(-c2ccccc2)o1 [Compound 17, (E)-[3-[2-cyano-2-(4,5-diphenyl-2-oxazolyl)ethenyl]phenoxy]acetic acid] | 0.11 (≈ 0.26 µM)
COC(=O)COc1cccc(CC(C#N)c2nc(-c3ccccc3)c(-c3ccccc3)o2)c1 (stereo not shown) [Compound 18] | 0.36 (≈ 0.821 µM)
N#CC(Cc1cccc(OCC(=O)O)c1)c1nc(-c2ccccc2)c(-c2ccccc2)o1 (stereo not shown) [Compound 19, [3-[2-Cyano-2-(4,5-diphenyl-2-oxazolyl)ethyl]phenoxy]acetic acid] | 0.2 (≈ 0.471 µM)
